The subject of this assay is hamsters fed a high cholesterol diet. Kind of assay: Measurement of lipid lowering effect in hamsters fed a high cholesterol diet. The class given is in vivo, Male Golden Syrian hamsters. As to conditions: Mesocricetus auratus, po, 168 h, gavage once daily, 7 days. As for the experimental part:
Male Golden Syrian hamsters are divided into groups each consisting of 6 animals and fed a controlled high cholesterol diet (CE-2 containing 0.5% cholesterol; CLEA Japan, Inc.) for 28 days at most. From the start of feeding of the high cholesterol diet, the test compounds are administered by gavage once daily. For the administration, 0.2 mL of corn oil alone per 100 g (control group) or a solution (or suspension) of the test compound in corn oil at a dose of 0.01 to 10 mg/kg was given. At the same time, a group fed with a normal diet during the same study period is handled as a normal group. 4 hours after the last administration, whole blood is collected from the abdominal aorta under light anesthesia with ether and serum is separated from the blood. Further, livers are harvested, wet liver weights are measured, and part (about 0.5 g) of the harvested livers are extracted and weighed. 2-propanol in an amount 4 times the weight of the extracted livers are added, the resulted mixtures are homogenized, and the centrifuged supernatant are recovered and used as liver-derived samples.
Serum and liver TC concentrations are determined by an enzyme method using L-type Wako CHO•H (Wako Pure Chemical Industries Ltd.) or Cholestest CHO (Daiichi Pure Chemicals Co., Ltd.). Serum TG concentrations are determined by an enzyme method using L-type Wako TG•H (Wako Pure Chemical Industries Ltd.) or Autosera S TG-N (Daiichi Pure Chemicals Co., Ltd.) and a free glycerine elimination method. LDL-C concentrations are determined by a direct method using L-type Wako LDL-C•M (Wako Pure Chemical Industries Ltd.) or Cholestest LDL (Daiichi Pure Chemicals Co., Ltd.). Human serum was commonly used as a sample for the calibration curve for determinations of serum and liver TC concentrations, serum TG concentration, and serum LDL-C concentration. The effect of the test compound is shown by a suppression rate (%) of an increase in serum TC concentration due to feeding of the high cholesterol diet, a serum TG lowering rate (%), a suppression rate (%) of an increase in serum LDL-C concentration due to feeding of the high cholesterol diet, and a suppression rate (%) of an increase in liver TC concentration due to feeding of the high cholesterol diet calculated in accordance with the following equations.
In the Equation 2, A is the control group, B is the test compound group, and C is the normal group.
In the Equation 3, A is the control group, B is the test compound group, and C is the normal group.
In the Equation 4, A is the control group, B is the test compound group, and C is the normal group.
In the Equation 5, A is the control group, and B is the test compound group.
The following results were obtained from the study by this method on the effects of lowering serum TC, LDL-C, and TG, and liver TC in the hamsters fed with a high cholesterol diet which were given the test compounds for 7 days.
The compounds in which pyridyl of compound of example 51 and 55 was exchanged for phenyl, were used as comparative compound 1 and 2, respectively. In the same method as Example 112, the suppression rate (%) of an increase in serum TC concentration of comparative compound 1 and 2 were calculated.

The mark [1] stands for this setting: read-out: serum LDL-C lowering effect (suppression rate of an increase in serum LDL-C concentration).
Setting [2] is: read-out: serum TC lowering effect (suppression rate of an increase in serum TC concentration).
Where [3] appears, read: read-out: liver TC lowering effect (suppression rate of an increase in liver TC concentration).
The mark [4] stands for this setting: read-out: serum TG lowering effect (serum TG lowering rate).

Where two headings read alike, the source gives them in different places.

As for `O=C1[C@H](SC[C@H](O)c2ccc(Cl)cc2)[C@@H](c2ccc(O)cc2O)N1c1ccc(-c2cccnc2)cc1` [Example 62, (3R,4R)-3-[(2R)-2-(4-chlorophenyl)-2-hydroxyethylthio]-4-(2,4-dihydroxyphenyl)-1-[4-(pyridin-3-yl)phenyl]azetidin-2-one], the inhibition in vivo at 0.1 mg/kg is, setting by setting: under setting [1], ≥ 50%; under setting [2], ≥ 50%.
As to `COc1cc(Cl)ccc1[C@@H](O)CS[C@H]1C(=O)N(c2ccc(-c3cccnc3)cc2)[C@@H]1c1ccc(O)cc1` [Example 101, (3R,4R)-3-[(2R)-2-(4-chloro-2-methoxyphenyl)-2-hydroxyethylthio]-4-(4-hydroxyphenyl)-1-[4-(pyridin-3-yl)phenyl]azetidin-2-one], the inhibition in vivo at 0.1 mg/kg by setting is: under setting [1], ≥ 50%; under setting [2], ≥ 50%.
As to `N#Cc1cncc(-c2ccc(N3C(=O)[C@H](SC[C@H](O)c4ccc(F)cc4)[C@H]3c3ccc(O)cc3O)cc2)c1` [Example 63, 5-(4-{(3R,4R)-3-[(2R)-2-(4-fluorophenyl)-2-hydroxyethylthio]-4-(2,4-dihydroxyphenyl)-2-oxoazetidinyl}phenyl)pyridine-3-carbonitrile], the inhibition in vivo at 0.01 mg/kg by setting is: under setting [3], ≥ 30%; under setting [1], ≥ 30%; under setting [2], ≥ 30%. In addition, the inhibition in vivo at 0.1 mg/kg by setting is: under setting [1], ≥ 50%; under setting [2], ≥ 50%.
`CCNC(=O)c1cncc(-c2ccc(N3C(=O)[C@H](SC[C@H](O)c4ccc(Cl)cc4)[C@H]3c3ccc(O)cc3)cc2)c1` [Example 106, N-ethyl-5-(4-{(3R,4R)-3-[(2R)-2-(4-chlorophenyl)-2-hydroxyethylthio]-4-(4-hydroxyphenyl)-2-oxoazetidinyl}phenyl)pyridine-3-carboxamide]: the inhibition in vivo at 0.1 mg/kg under setting [1] is ≥ 50%.
With `O=C1[C@H](SC[C@H](O)c2ccc(F)cc2)[C@@H](c2ccc(O)cc2)N1c1ccc(-c2ccc(C(F)(F)F)cn2)cc1` [Example 3, (3R,4R)-3-[(2R)-2-(4-fluorophenyl)-2-hydroxyethylthio]-4-(4-hydroxyphenyl)-1-[4-(5-trifluoromethylpyridin-2-yl)phenyl]azetidin-2-one], under setting [4], the inhibition in vivo at 0.1 mg/kg is ≥ 20%.
On to `Cc1cc(O)ccc1[C@@H]1[C@@H](SC[C@H](O)c2ccc(F)cc2)C(=O)N1c1ccc(-c2cncc(F)c2)cc1` [Example 74, (3R,4R)-3-[(2R)-2-(4-fluorophenyl)-2-hydroxyethylthio]-1-[4-(5-fluoropyridin-3-yl)phenyl]-4-(4-hydroxy-2-methylphenyl)azetidin-2-one], for which the inhibition in vivo at 0.01 mg/kg by setting is: under setting [3], ≥ 30%; under setting [2], ≥ 30%. In addition, the inhibition in vivo at 0.1 mg/kg is, setting by setting: under setting [3], ≥ 50%; under setting [1], ≥ 50%.
In the case of `Cc1cncc(-c2ccc(N3C(=O)[C@H](SC[C@H](O)c4ccc(F)cc4)[C@H]3c3ccc(O)cc3)cc2)c1` [Example 68, (3R,4R)-3-[(2R)-2-(4-fluorophenyl)-2-hydroxyethylthio]-4-(4-hydroxyphenyl)-1-[4-(5-methylpyridin-3-yl)phenyl]azetidin-2-one], the inhibition in vivo at 0.01 mg/kg under setting [2] is ≥ 30%. Moreover, the inhibition in vivo at 0.1 mg/kg under setting [1] was ≥ 50%.
In the case of `COc1ccc([C@@H](O)CS[C@H]2C(=O)N(c3ccc(-c4cccnc4)cc3)[C@@H]2c2ccc(O)cc2)cc1` [Example 84, (3R,4R)-3-[(2R)-2-hydroxy-2-(4-methoxyphenyl)ethylthio]-4-(4-hydroxyphenyl)-1-[4-(pyridin-3-yl)phenyl]azetidin-2-one], the inhibition in vivo at 0.1 mg/kg under setting [3] is ≥ 50%.
Take `O=C1[C@H](SC[C@H](O)c2ccc(Cl)cc2)[C@@H](c2ccc(O)cc2O)N1c1ccc(-c2cncc(F)c2)cc1` [Example 72, (3R,4R)-3-[(2R)-2-(4-chlorophenyl)-2-hydroxyethylthio]-4-(2,4-dihydroxyphenyl)-1-[4-(5-fluoropyridin-3-yl)phenyl]azetidin-2-one]: the inhibition in vivo at 0.1 mg/kg was ≥ 50% under setting [1] and ≥ 50% under setting [2].
For the compound `O=C1[C@H](SC[C@H](O)c2ccc(Cl)cc2)[C@@H](c2ccc(O)cc2O)N1c1ccc(-c2cncc(Cl)c2)cc1` [Example 96, (3R,4R)-3-[(2R)-2-(4-chlorophenyl)-2-hydroxyethylthio]-4-(2,4-dihydroxyphenyl)-1-[4-(5-chloropyridin-3-yl)phenyl]azetidin-2-one], the inhibition in vivo at 0.01 mg/kg under setting [3] is ≥ 30%.
`Cc1cc(O)ccc1[C@@H]1[C@@H](SC[C@H](O)c2ccc(F)cc2)C(=O)N1c1ccc(-c2cncc(C#N)c2)cc1` [Example 80, 5-(4-{(3R,4R)-3-[(2R)-2-(4-fluorophenyl)-2-hydroxyethylthio]-4-(4-hydroxy-2-methylphenyl)-2-oxoazetidinyl}phenyl)pyridine-3-carbonitrile]: the inhibition in vivo at 0.1 mg/kg runs as follows: under setting [1], ≥ 50%; under setting [2], ≥ 50%.
With `O=C1[C@H](SC[C@H](O)c2ccc(F)cc2)[C@@H](c2ccc(O)cc2)N1c1ccc(-c2cnccn2)cc1` [Example 53, (3R,4R)-3-[(2R)-2-(4-fluorophenyl)-2-hydroxyethylthio]-4-(4-hydroxyphenyl)-1-[4-(pyrazin-2-yl)phenyl]azetidin-2-one], under setting [1], the inhibition in vivo at 0.1 mg/kg is ≥ 50%.
Consider `O=C1[C@H](SC[C@H](O)c2ccc(Cl)cc2)[C@@H](c2ccc(O)cc2O)N1c1ccc(-c2cncc(C(F)(F)F)c2)cc1` [Example 75, (3R,4R)-3-[(2R)-2-(4-chlorophenyl)-2-hydroxyethylthio]-4-(2,4-dihydroxyphenyl)-1-[4-(5-trifluoromethylpyridin-3-yl)phenyl]azetidin-2-one], for which the inhibition in vivo at 0.01 mg/kg runs as follows: under setting [3], ≥ 30%; under setting [1], ≥ 30%. Moreover, the inhibition in vivo at 0.1 mg/kg under setting [3] is ≥ 50% and the inhibition in vivo at 0.1 mg/kg under setting [4] is ≥ 20%.
In the case of `O=C1[C@H](SC[C@H](O)c2ccc(Cl)s2)[C@@H](c2ccc(O)cc2)N1c1ccc(-c2cccnc2)cc1` [Example 46, (3R,4R)-3-[(2S)-2-(5-chlorothiophen-2-yl)-2-hydroxyethylthio]-4-(4-hydroxyphenyl)-1-[4-(pyridin-3-yl)phenyl]azetidin-2-one], the inhibition in vivo at 0.1 mg/kg under setting [4] is ≥ 20%.
`O=C1[C@H](SC[C@H](O)c2ccc(Cl)c(F)c2)[C@@H](c2ccc(O)cc2)N1c1ccc(-c2cncc(F)c2)cc1` [Example 82, (3R,4R)-3-[(2R)-2-(4-chloro-3-fluorophenyl)-2-hydroxyethylthio]-1-[4-(5-fluoropyridin-3-yl)phenyl]-4-(4-hydroxyphenyl)azetidin-2-one]: the inhibition in vivo at 0.1 mg/kg by setting is: under setting [1], ≥ 50%; under setting [2], ≥ 50%.
With `O=C1[C@H](SC[C@H](O)c2ccc(F)cc2F)[C@@H](c2ccc(O)cc2)N1c1ccc(-c2cccnc2)cc1` [Example 30, (3R,4R)-3-[(2R)-2-(2,4-difluorophenyl)-2-hydroxyethylthio]-4-(4-hydroxyphenyl)-1-[4-(pyridin-3-yl)phenyl]azetidin-2-one], the inhibition in vivo at 0.1 mg/kg under setting [3] is ≥ 50%, the inhibition in vivo at 0.1 mg/kg under setting [1] is ≥ 50% and the inhibition in vivo at 0.1 mg/kg under setting [2] was ≥ 50%.
Consider `CCNC(=O)c1cncc(-c2ccc(N3C(=O)[C@H](SC[C@H](O)c4ccc(F)cc4)[C@H]3c3ccc(O)cc3)cc2)c1` [Example 49, N-ethyl-5-(4-{(3R,4R)-3-[(2R)-2-(4-fluorophenyl)-2-hydroxyethylthio]-4-(4-hydroxyphenyl)-2-oxoazetidinyl}phenyl)pyridine-3-carboxamide], for which the inhibition in vivo at 0.1 mg/kg was ≥ 50% under setting [1], ≥ 50% under setting [2] and ≥ 20% under setting [4].

Values taken from patent US20100125059A1, “1-BIARYLAZETIDINONE DERIVATIVE” (Teijin Pharma Limited, priority 2007, published 2010).
